Here are results for 4 compounds from EP3965790B1, “PENTACYCLIC TRITERPENES IN THE TREATMENT OF VITILIGO” (Pierre Fabre Dermo-Cosmétique, priority 2019, dated 2020).

The test system of one experiment is IL-23A. Briefly: RT-qPCR gene expression in cytokine-stimulated keratinocytes. It is filed as cell-based, humains. To be noted: 24 h.
Experiment [1] relates to MMP-9. The experiment is described as above. Conditions: 24 h. Type of experiment: cell-based, humains.
For a further experiment, the system named is CXCL10. The experiment is described as above. Conditions: 24 h. Type of experiment: cell-based, humains.
In the next experiment the test system is CCL20. The description is as above. It is filed as cell-based, humains. Conditions: 24 h.
Experiment [2] has as its system IL-8. Briefly: ELISA of IL-8 release by cytokine-stimulated keratinocytes. Type of experiment: cell-based, humains. Conditions: concentrations as in Tableau 5 (JAK 10 µM; TA, TB 500 ng/ml; Célastrol 100 ng/ml; extrait 1 200 ng/ml; extrait 2 150 ng/ml). (ELISA stands for enzyme-linked immunosorbent assay.)
A further experiment concerns CCL5. In words: RT-qPCR gene expression in cytokine-stimulated keratinocytes. It is filed as cell-based, humains. To be noted: 24 h. (Real-time PCR tracks product formation cycle by cycle.)
For experiment [3], the system named is IL-8. The experiment is described as above. It is filed as cell-based, humains. To be noted: 24 h.
The next experiment concerns DEFB4A. The experiment is described as above. Conditions: 24 h. Type of experiment: cell-based, humains.
Experiment [4] is described as follows: ORAC (Oxygen Radical Antioxydant Capacity) antioxidant test in tubo. Conditions: for Indice ORAC / 100g triterpènes (x 1000): Trolox standard, AAPH, fluorescéine. The text has this:
Le stress oxydatif fait partie des causes possibles de l'apparition du vitiligo. Cette expérience a pour objectif de mesurer l'activité antioxydante de chaque triterpène pentacyclique et des deux extraits, en comparaison avec un témoin positif bien connu, la vitamine C. La méthode in tubo utilisée est celle d'évaluation ORAC (Oxygen Radical Antioxydant Capacity) adaptée de celle décrite par Davalos et al. (J Agric Food Chem 52(1):48-54, 2004). L'indice ORAC permet d'évaluer la capacité anti-oxydante de chaque composé testé dans l'exemple 2. Ce test permet d'évaluer et de classer les différents composés testés suivant leur pouvoir anti-oxydant vis-à-vis des radicaux libres péroxyl. Le AAPH (2,2'-azobis-2-méthyl-propanimidamide, dihydrochloride) est à l'origine de radicaux libres péroxyl. Ce test est utilisé pour mimer la cinétique de dégradation de la fluorescéine par les radicaux libres. Ceci se traduit par une diminution de fluorescence en fonction du temps et de la concentration en actif anti-oxydant présent dans l'extrait testé. L'acide 3,4-dihydro-6-hydroxy-2,5,7,8-tétraméthyl-2H-1-benzopyran-2-carboxylique ou Trolox est utilisé comme standard, il s'agit d'un analogue hydrophile de la vitamine E (anti-oxydant connu). L'ajout de Trolox (gamme de référence) ou d'extrait ou triterpène pentacyclique, protège la fluorescéine de la dégradation. Ceci permet d'évaluer une activité antioxydante mesurée par rapport à une gamme de Trolox.
Toutes les solutions sont réalisées dans du tampon phosphate 75 mM, pH à 7,6. La fluorescéine est à 1,17 µM (solution mère […]). AAPH à 125 mM est préparé extemporanément, Trolox à 1 mM. Dans une plaque de 96 puits noir, il est déposé 20 µl d'antioxydant (gamme Trolox ou composé à tester), 160 µl de fluorescéine à 1,17 µM. la plaque est recouverte d'un film, puis est incubée pendant 15 minutes à 37°C. la solution de AAPH est ajoutée manuellement et le plus rapidement possible à raison de 20 µl par puits. La plaque est alors incubée immédiatement à 37°C dans un spectrofluorimètre (SpectraMax). Une lecture est enregistrée toutes les minutes pendant 90 minutes. La longueur d'onde d'excitation est de 485 nm et la longueur d'onde d'émission est de 520 nm. Chaque essai est réalisé en triplicata.
Les aires sous la courbe (AUC) pour chacun des essais sont calculées. Les AUC nets sont déterminées de la façon suivante : AUC net = AUC point de gamme ou échantillon−AUC blanc. [formula]
La droite d'étalonnage est établie, la concentration en Trolox (µM) en fonction de l'AUC net. L'équation de la droite est utilisée pour déterminer un équivalent en Trolox (µM) pour chacun des échantillons dosés.
Eq Trolox en µM = a x (AUC net)2 + b x (AUC net), a et b sont déterminés par l'équation de la droite.
Pour être dosés, les échantillons sont dilués, de sorte que les valeurs mesurées soient comprises dans la gamme étalon utilisée pour le dosage. L'acide ascorbique (vitamine C) est utilisé comme référence.
L'indice ORAC correspond à des […] de Trolox / 100g de matières.
Les résultats ci-dessous ont été calculés pour 100g d'extrait en Triterpènes, Tingénine A, Tingénine B et célastrol, soit le calcul : [formula]

Experiment [5] concerns MMP-9. In words: ELISA of MMP-9 release by cytokine-stimulated keratinocytes. Type of experiment: cell-based, humains. Conditions: for Libération de MMP-9 (pg/ml) ± sem: stimulated keratinocytes, 48 h, supernatant; for effet sur la libération de MMP-9 (in words): concentrations as in Tableau 5 (JAK 10 µM; TA, TB 500 ng/ml; Célastrol 100 ng/ml; extrait 1 200 ng/ml; extrait 2 150 ng/ml).

The next experiment deals with CXCL16. In words: RT-qPCR gene expression in cytokine-stimulated keratinocytes. Type of experiment: cell-based, humains. To be noted: 24 h.
A further experiment concerns S100A7. The description is as above. It is filed as cell-based, humains. Conditions: 24 h.
The subject of another experiment is CXCL11. The description is as above. It is filed as cell-based, humains. Conditions: 24 h.
Where [6] appears, read: 45 ng/ml, stimulated keratinocytes.
The mark [7] stands for this setting: 135 ng/ml, stimulated keratinocytes.
Setting [8] is: 405 ng/ml, stimulated keratinocytes.
Where [9] appears, read: 10µM, stimulated keratinocytes (IL-17, Oncostatin M, TNFα 3ng/ml).

Tingénine B: the “% Stimulation / Gènes témoins, IL-23A” value in the experiment on IL-23A (setting [6]) is 80%; with IL-23A (setting [7]), 72%; in the experiment on IL-23A (setting [8]), 34%. The “% Stimulation / Gènes témoins, MMP-9” value is on record as 88% in the experiment on MMP-9 [1] (setting [6]), 63% with MMP-9 [1] (setting [7]) and 32% in the experiment with MMP-9 [1] (setting [8]). Moreover, the “% Stimulation / Gènes témoins, CXCL10” value came to 93% with CXCL10 (setting [6]), 83% with CXCL10 (setting [7]) and 30% with CXCL10 (setting [8]). Also, the “% Stimulation / Gènes témoins, CCL20” value is recorded as 105% in the experiment on CCL20 (setting [6]), 85% in the experiment with CCL20 (setting [7]) and 82% in the experiment on CCL20 (setting [8]). Moreover, in the experiment on IL-8 [2], the “effet sur la libération d'IL-8 (in words)” value is on record as “effet inhibiteur”. In addition, the “% Stimulation / Gènes témoins, CCL5” value with CCL5 (setting [6]) is 68%; in the experiment on CCL5 (setting [7]) it was 55%; in the experiment with CCL5 (setting [8]), 19%. Besides, the “% Stimulation / Gènes témoins, IL-8” value came out at 96% with IL-8 [3] (setting [6]), 70% in the experiment with IL-8 [3] (setting [7]) and 44% with IL-8 [3] (setting [8]). For the same compound, the figures for the “% Stimulation / Gènes témoins, DEFB4A” value in the experiment on DEFB4A (setting [6]), with DEFB4A (setting [7]) and with DEFB4A (setting [8]) were 67%, 48% and 16%, respectively. In [4] (7,5 µg/ml), the “Indice ORAC / 100g triterpènes (x 1000)” value is recorded as 124 320 / 100g triterpènes (x 1000). The “Libération de MMP-9 (pg/ml) ± sem” value in the experiment with MMP-9 [5] (500 ng/ml) was found to be 828 ± 31 pg/mL. Moreover, the “effet sur la libération de MMP-9 (in words)” value in the experiment with MMP-9 [5] is reported as “effet inhibiteur”. Moreover, the “% Stimulation / Gènes témoins, CXCL16” value in the experiment on CXCL16 (setting [6]) is 83%; in the experiment on CXCL16 (setting [7]), 77%; in the experiment with CXCL16 (setting [8]) it was 54%. In addition, the entries for the “% Stimulation / Gènes témoins, S100A7” value with S100A7 (setting [6]), with S100A7 (setting [7]) and in the experiment with S100A7 (setting [8]) were 76%, 63% and 57%, respectively. Besides, the results for the “% Stimulation / Gènes témoins, CXCL11” value in the experiment on CXCL11 (setting [6]), in the experiment on CXCL11 (setting [7]) and in the experiment with CXCL11 (setting [8]) were 78%, 57% and 27%, respectively.
In the case of `O=C1O[C@H]([C@@H](O)CO)C(O)=C1O` [Vitamine C, acide ascorbique, reference compound], in experiment [4] (3 µg/ml), the “Indice ORAC / 100g triterpènes (x 1000)” value was 69 813 / 100g triterpènes (x 1000).
Consider `CC1=C(O)C(=O)C=C2C1=CC=C1[C@@]2(C)CC[C@@]2(C)C3C[C@@H](C)C(=O)C[C@]3(C)CC[C@]12C` (some centres unmarked) [Tingénine A], for which the “% Stimulation / Gènes témoins, IL-23A” value with IL-23A (setting [6]) was found to be 123%; in the experiment on IL-23A (setting [7]) it was 102%; in the experiment on IL-23A (setting [8]), 55%. Further, the “% Stimulation / Gènes témoins, MMP-9” value in the experiment on MMP-9 [1] (setting [6]) stood at 98%; with MMP-9 [1] (setting [7]), 93%; in the experiment on MMP-9 [1] (setting [8]), 34%. In addition, the “% Stimulation / Gènes témoins, CXCL10” value with CXCL10 (setting [6]) was determined as 108%; with CXCL10 (setting [7]), 80%; in the experiment on CXCL10 (setting [8]), 31%. The “% Stimulation / Gènes témoins, CCL20” value in the experiment with CCL20 (setting [6]) came to 112%; in the experiment with CCL20 (setting [7]) it was 124%; in the experiment on CCL20 (setting [8]) it was 80%. Moreover, the “effet sur la libération d'IL-8 (in words)” value in the experiment with IL-8 [2] is “effet inhibiteur”. Besides, the “% Stimulation / Gènes témoins, CCL5” value is reported as 92% in the experiment with CCL5 (setting [6]), 64% in the experiment with CCL5 (setting [7]) and 19% in the experiment on CCL5 (setting [8]). Moreover, the figures for the “% Stimulation / Gènes témoins, IL-8” value with IL-8 [3] (setting [6]), in the experiment with IL-8 [3] (setting [7]) and with IL-8 [3] (setting [8]) were 113%, 125% and 53%, respectively. In addition, the “% Stimulation / Gènes témoins, DEFB4A” value in the experiment on DEFB4A (setting [6]) was 81%; in the experiment on DEFB4A (setting [7]), 63%; in the experiment on DEFB4A (setting [8]), 22%. Besides, the “Indice ORAC / 100g triterpènes (x 1000)” value in experiment [4] (0,75 µg/ml) is 33 960 / 100g triterpènes (x 1000). Also, in [4] (comparison of ORAC indices of Tableau 6), the “pouvoir anti-oxydant compared with vitamine C (in words)” value is on record as “inférieur”. For the same compound, the “Libération de MMP-9 (pg/ml) ± sem” value in the experiment on MMP-9 [5] (500 ng/ml) was determined as 787 ± 105 pg/mL. For the same compound, the “effet sur la libération de MMP-9 (in words)” value in the experiment with MMP-9 [5] is listed as “effet inhibiteur”. In addition, the “% Stimulation / Gènes témoins, CXCL16” value with CXCL16 (setting [6]) amounted to 116%; in the experiment with CXCL16 (setting [7]) it was 93%; with CXCL16 (setting [8]), 50%. The “% Stimulation / Gènes témoins, S100A7” value stood at 91% in the experiment with S100A7 (setting [6]), 91% in the experiment with S100A7 (setting [7]) and 70% in the experiment with S100A7 (setting [8]). The figures for the “% Stimulation / Gènes témoins, CXCL11” value in the experiment on CXCL11 (setting [6]), with CXCL11 (setting [7]) and with CXCL11 (setting [8]) were 107%, 85% and 23%, respectively.
For the compound `CC(C)(C)c1nc2c3cc[nH]c(=O)c3c3cc(F)ccc3c2[nH]1` [Inhibiteur JAK, reference compound], the “% Stimulation / Gènes témoins, IL-23A” value with IL-23A (setting [9]) was found to be 67%. Further, the “% Stimulation / Gènes témoins, MMP-9” value in the experiment with MMP-9 [1] (setting [9]) is 40%. For the same compound, in the experiment with CXCL10 (setting [9]), the “% Stimulation / Gènes témoins, CXCL10” value is recorded as 38%. Besides, the “% Stimulation / Gènes témoins, CCL20” value in the experiment on CCL20 (setting [9]) is reported as 292%. The “effet sur la libération d'IL-8 (in words)” value in the experiment on IL-8 [2] was “inhibe fortement et statistiquement”. In the experiment on CCL5 (setting [9]), the “% Stimulation / Gènes témoins, CCL5” value is reported as 16%. In addition, the “% Stimulation / Gènes témoins, IL-8” value in the experiment on IL-8 [3] (setting [9]) was 18%. Besides, the “% Stimulation / Gènes témoins, DEFB4A” value with DEFB4A (setting [9]) came to 7%. Moreover, the “Libération de MMP-9 (pg/ml) ± sem” value with MMP-9 [5] (10 µM) came to 389 ± 18 pg/mL. The “effet sur la libération de MMP-9 (in words)” value in the experiment with MMP-9 [5] is given as “inhibe fortement et statistiquement”. Also, the “% Stimulation / Gènes témoins, CXCL16” value in the experiment on CXCL16 (setting [9]) came out at 76%. Further, the “% Stimulation / Gènes témoins, S100A7” value in the experiment with S100A7 (setting [9]) worked out at 25%. Besides, the “% Stimulation / Gènes témoins, CXCL11” value in the experiment on CXCL11 (setting [9]) was 14%.
